Measurements: patent US11365195B2, “Atypical inhibitors of monoamine transporters; method of making; and use thereof” (THE UNITED STATES OF AMERICA, AS REPRESENTED BY THE …, priority 2017, dated 2022)
Read-outs that look alike come from different tables or passages of the source.

What was measured:
SERT = molecular target: T1, SERT (Rattus norvegicus, UniProt P31652); experiment: SERT radioligand binding in rat midbrain ([3H]-Citalopram competition)
T1 construct: 100 μl of tissue preparation (2 mg of brain stem membranes per well); tissue Bioreclamation IVT (Hicksville, N.Y.); host or cells: male Sprague-Dawley rat brain stem membranes
Experimental: (§1) Binding affinities of the analogue compounds were evaluated at the DAT and SERT in rat brain membranes, and sigma-1 in guinea pig brain membranes according to the following protocols.
SERT Radioligand Binding in Rat Midbrain
(§2) The tissue was centrifuged at 20,000 rpm for 10 min at 4° C. The pellet was suspended in cold buffer and centrifuged again using the same settings. The resulting pellet was resuspended in cold buffer at a concentration of 20 mg/mL OWW (original wet weight). On test day, all test compounds were freshly dissolved in 30% DMSO and 70% H2O to a stock concentration of 1 mM or 100 μM. When necessary, to assist the solubilization of compounds, 10 μl of glacial acetic acid was added along with the DMSO (in place of 10 μl final H2O volume). Each test compound was then diluted into 10 half-log serial dilutions using 30% DMSO vehicle. […] Non-specific binding was determined using 10 μL Fluoxetine HCl and total binding was determined with 30% DMSO vehicle. The reaction was started with the addition of the tissue. All compound dilutions were tested in triplicate and the reaction incubated for 60 min at room temperature. The reaction was terminated by filtration through Perkin Elmer Uni-Filter-96 GF/B, presoaked for 60 min in 0.3% polyethylenimine, using a Brandel 96-Well Plates Harvester Manifold (Brandel Instruments, Gaithersburg, Md.). The filters were washed 3 times with 3 mL (3×1 mL/well) of ice cold binding buffer. […] These analyses were performed using GraphPad Prism version 6.00 for Macintosh (GraphPad Software, San Diego, Calif.).

DAT = molecular target: T2, DAT (Rattus norvegicus, UniProt P23977); experiment: DAT radioligand binding in rat striatum ([3H]-WIN35,428 competition); details: for SERT/DAT: ratio of SERT Ki to DAT Ki
T2 construct: 100 μl of tissue preparation (1.5 mg of brain striatum membranes per well); tissue Bioreclamation IVT (Hicksville, N.Y.); host or cells: male Sprague-Dawley rat brain striatum membranes
Experimental: as §1
DAT Radioligand Binding in Rat Striatum
as §2, with “of 15” for “of 20”, “100 μM” for “100 μM.”, “[…] Indatraline” for “μL Fluoxetine HCl”, “tissue. […]” for “tissue. All compound dilutions were tested in triplicate and the reaction incubated for 60 min at room temperature. The reaction was terminated by filtration through Perkin Elmer Uni-Filter-96 GF/B, presoaked for 60 min in 0.3% polyethylenimine, using a Brandel 96-Well Plates Harvester Manifold (Brandel Instruments, Gaithersburg, Md.).”

σ1R = molecular target: T3, σ1R (Cavia porcellus, UniProt Q60492); experiment: σ1R radioligand binding in guinea pig cortex ([3H]-(+)-Pentazocine competition); details: for σ1/DAT: ratio of σ1 to DAT affinity values; for σ1/SERT: ratio of σ1 to SERT affinity values
T3 construct: tissue BioReclamation IVT (Hicksville, N.Y.); host or cells: male Hartley guinea pig brain cortex membranes
Experimental: as §1
σ1R Radioligand Binding in Guinea Pig Cortex
Male Hartley guinea pig cortices were dissected from freshly harvested brains (shipped cold in PBS buffer from BioReclamation IVT (Hicksville, N.Y.)) and frozen at −80° C. for future use. […] The supernatant was collected in a clean tube and the pellet re-suspended in 10 ml of cold buffer and centrifuged again (˜1,200 rpm) for 10 min at 4° C. […] The final pellet was suspended in ice-cold binding buffer at 50 mg/ml concentration. […] All test compounds were freshly dissolved in 30% DMSO and 70% H2O to a stock concentration of 1 mM or 100 μM. When necessary, to assist the solubilization of compounds, 10 μl of glacial acetic acid was added along with the DMSO (in place of 10 μl final H2O volume). Each test compound was then diluted into 10 half-log serial dilutions using 30% DMSO as the vehicle. […] Nonspecific binding was determined using either 10 μM PRE084 or 10 μM (+)-Pentazocine and total binding was determined with 30% DMSO vehicle (3% DMSO final concentration). […] The filters were washed 3 times with 3 ml (3×1 ml/well) of ice cold binding buffer.

[1] = Phase I metabolic stability in rat liver microsomes; type: in vitro ADME; details: for Phase I in Liver Microsomes, Negative Control: rat liver microsomes lacking NADPH; for Phase I in Liver Microsomes, Rat: with NADPH, 10 μM compound, 0.5 mg/mL microsomes
Experimental: Methods: Phase I metabolic stability assays were conducted in rat liver microsomes. For phase I metabolism, the reactions were carried out with 100 mM potassium phosphate buffer, pH 7.4, in the presence of NADPH regenerating system (1.3 mM NADPH, 3.3 mM glucose 6-phosphate, 3.3 mM MgCl2, 0.4 U/mL glucose-6-phosphate dehydrogenase, […] sodium citrate). Reactions in triplicate were initiated by addition of the liver microsomes to the incubation mixture (compound final concentration was 10 μM; 0.5 mg/mL microsomes). Compound disappearance was monitored via LC/MS/MS. […] The total run time for each analyte was 5.0 min.

[2] = rat midbrain/brain stem membranes, [3H]-Citalopram, mean ± SEM, read-out: SERT (rat mid-brain-stem) Ki ± SEM
[3] = rat striatum membranes, [3H]-WIN35,428, mean ± SEM, read-out: DAT (rat striatum) Ki ± SEM

T1 sequence (P31652 whole entry): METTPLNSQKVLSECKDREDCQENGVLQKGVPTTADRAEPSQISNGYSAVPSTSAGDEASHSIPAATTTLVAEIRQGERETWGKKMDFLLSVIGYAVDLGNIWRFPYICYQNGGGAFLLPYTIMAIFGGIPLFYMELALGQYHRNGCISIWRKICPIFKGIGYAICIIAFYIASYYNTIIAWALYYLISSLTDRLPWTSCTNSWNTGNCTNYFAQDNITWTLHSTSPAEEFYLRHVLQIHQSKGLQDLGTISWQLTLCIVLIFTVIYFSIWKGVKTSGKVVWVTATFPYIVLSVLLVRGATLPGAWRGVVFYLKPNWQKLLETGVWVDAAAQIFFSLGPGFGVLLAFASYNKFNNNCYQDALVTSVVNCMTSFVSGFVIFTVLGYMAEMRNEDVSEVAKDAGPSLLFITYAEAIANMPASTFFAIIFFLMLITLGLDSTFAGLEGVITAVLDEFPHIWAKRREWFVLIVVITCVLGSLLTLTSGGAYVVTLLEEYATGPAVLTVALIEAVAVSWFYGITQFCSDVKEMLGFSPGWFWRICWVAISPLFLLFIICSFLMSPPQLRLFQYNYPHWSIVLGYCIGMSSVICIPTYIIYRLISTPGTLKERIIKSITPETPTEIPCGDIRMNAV
T3 sequence (Q60492 whole entry): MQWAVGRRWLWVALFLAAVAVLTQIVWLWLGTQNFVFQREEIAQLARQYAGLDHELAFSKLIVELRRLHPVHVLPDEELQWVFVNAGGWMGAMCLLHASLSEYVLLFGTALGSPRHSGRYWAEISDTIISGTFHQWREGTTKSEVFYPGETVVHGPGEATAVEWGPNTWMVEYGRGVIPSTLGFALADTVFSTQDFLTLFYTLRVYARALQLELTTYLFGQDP
T2 sequence (P23977 whole entry): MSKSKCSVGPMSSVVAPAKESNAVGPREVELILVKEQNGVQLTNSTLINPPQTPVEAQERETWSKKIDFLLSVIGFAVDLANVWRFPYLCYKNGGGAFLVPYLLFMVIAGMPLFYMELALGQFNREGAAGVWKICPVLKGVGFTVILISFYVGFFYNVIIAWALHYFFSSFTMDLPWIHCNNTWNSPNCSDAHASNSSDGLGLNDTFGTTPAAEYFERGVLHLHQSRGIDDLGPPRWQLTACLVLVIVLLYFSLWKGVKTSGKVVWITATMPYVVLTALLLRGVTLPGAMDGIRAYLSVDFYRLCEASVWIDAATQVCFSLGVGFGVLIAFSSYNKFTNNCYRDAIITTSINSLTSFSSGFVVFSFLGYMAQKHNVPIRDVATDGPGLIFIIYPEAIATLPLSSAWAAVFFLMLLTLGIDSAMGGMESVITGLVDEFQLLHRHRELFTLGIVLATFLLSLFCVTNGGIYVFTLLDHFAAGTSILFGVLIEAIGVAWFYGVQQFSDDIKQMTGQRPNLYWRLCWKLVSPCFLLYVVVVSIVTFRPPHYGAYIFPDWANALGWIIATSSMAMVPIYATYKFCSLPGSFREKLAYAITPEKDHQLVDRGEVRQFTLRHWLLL

SMILES | Ki (SERT; [2]) | SERT/DAT (DAT) | Ki (DAT; [3]) | σ1/DAT (σ1R) | other results
Cl.Cl.O.O=C(c1cc2ccccc2[nH]1)N1CCC(NCCSC(c2ccc(F)cc2)c2ccc(F)cc2)CC1 [JBG02-029, (4-((2-((Bis(4-fluorophenyl)methyl)thio)ethyl)amino)piperidin-1-yl)(1H-indol-2-yl)methanone] | 0.938 ± 0.0765 µM | 5.21 | – | – | Ki (DAT): 0.18 ± 0.0398 µM
Cl.Cl.Fc1ccc(C(SCCNC2CCN(Cc3cc4ccccc4[nH]3)CC2)c2ccc(F)cc2)cc1 [JBG02-014, 1-((1H-Indol-2-yl)methyl)-N-(2-((bis(4-fluorophenyl)methyl)thio)ethyl)piperidin-4-amine] | 1.72 ± 0.516 µM | 9.61 | 0.179 ± 0.022 µM | – | –
Cl.Cl.OC(Cc1ccccc1)CN(CC(O)Cc1ccccc1)C1CCN(CCSC(c2ccc(F)cc2)c2ccc(F)cc2)CC1 (centres unmarked) [JBG01-056, 3,3′-((1-(2-((Bis(4-fluorophenyl)methyl)thio)ethyl)piperidin-4-yl)azanediyl)bis(1-phenylpropan-2-ol)] | – | 8.44 | – | 1.75 | Ki (SERT): 1.57 ± 0.315 µM; Kd (σ1R): 0.326 ± 0.0224 µM; σ1/SERT (σ1R): 0.21; Ki (DAT): 0.186 ± 0.0464 µM
Cl.Cl.Fc1ccc(C(SCCNC2CCN(CCc3ccccc3)CC2)c2ccc(F)cc2)cc1 [JBG01-084, N-(2-((Bis(4-fluorophenyl)methyl)thio)ethyl)-1-phenethylpiperidin-4-amine] | 0.144 ± 0.017 µM | 4.57 | 0.0315 ± 0.00532 µM | 1.83 | σ1/SERT (σ1R): 0.40
Fc1ccc(C(SCCN2CCC(NCc3ccccc3)CC2)c2ccc(F)cc2)cc1 [JBG01-057, N-Benzyl-1-(2-((bis(4-fluorophenyl)methyl)thio)ethyl)piperidin-4-amine] | 0.329 ± 0.0343 µM | 3.05 | 0.108 ± 0.0175 µM | 0.56 | σ1/SERT (σ1R): 0.19
Cl.Cl.Fc1ccc(C(SCCNC2CCN(Cc3ccc(Cl)cc3)CC2)c2ccc(F)cc2)cc1 [JBG01-078, N-(2-((Bis(4-fluorophenyl)methyl)thio)ethyl)-1-(4 chlorobenzyl)piperidin-4-amine] | 0.356 ± 0.000862 µM | 8.99 | 0.0396 ± 0.00927 µM | 1.15 | σ1/SERT (σ1R): 0.13
O=C(c1cc2ccccc2o1)N1CCC(NCCSC(c2ccc(F)cc2)c2ccc(F)cc2)CC1 [JBG02-015, Benzofuran-2-yl(4-((2-((bis(4-fluorophenyl)methyl)thio)ethyl)amino)piperidin-1-yl)methanone] | 0.0964 ± 0.0237 µM | – | 0.115 ± 0.0195 µM | – | –
CC(C)(C)C(=O)N1CCC(NCC[S+]([O-])C(c2ccc(F)cc2)c2ccc(F)cc2)CC1 (centres unmarked) [JBG02-072, 1-(4-((2-((Bis(4-fluorophenyl)methyl)sulfinyl)ethyl)amino)piperidin-1-yl)-2,2-dimethylpropan-1-one] | 32 ± 6.76 µM | 3.14 | 10.2 ± 3.61 µM | 1.10 | –
CC(C)(C)CN1CCC(NCC[S+]([O-])C(c2ccc(F)cc2)c2ccc(F)cc2)CC1 (centres unmarked) [JBG02-074, N-(2-((Bis(4-fluorophenyl)methyl)sulfinyl)ethyl)-1-neopentylpiperidin-4-amine] | 6.99 ± 0.229 µM | 16.22 | 0.431 ± 0.0282 µM | 1.26 | –
Cl.Cl.OC(Cc1ccccc1)CN1CCC(NCCSC(c2ccc(F)cc2)c2ccc(F)cc2)CC1 (centres unmarked) [JBG01-058, 1-(4-((2-((Bis(4-fluorophenyl)methyl)thio)ethyl)amino)piperidin-1-yl)-3-phenylpropan-2-ol] | 0.128 ± 0.0332 µM | – | – | – | Phase I in Liver Microsomes, Negative Control ([1]; 0 min): 100%; Phase I in Liver Microsomes, Rat ([1]; 0 min): 100%; Phase I in Liver Microsomes, Rat ([1]; 30 min): 98%; Phase I in Liver Microsomes, Negative Control ([1]; 60 min): 96%; Phase I in Liver Microsomes, Rat ([1]; 60 min): 74%
Cl.Cl.Fc1ccc(CNC2CCN(CCSC(c3ccc(F)cc3)c3ccc(F)cc3)CC2)cc1 [JBG01-064, 1-(2-((Bis(4-fluorophenyl)methyl)thio)ethyl)-N-(4-fluorobenzyl)piperidin-4-amine] | 0.267 ± 0.00925 µM | 4.78 | 0.0559 ± 0.00608 µM | 0.74 | σ1/SERT (σ1R): 0.16
Cl.O=C(c1ccccc1)N1CCC(NCC[S+]([O-])C(c2ccc(F)cc2)c2ccc(F)cc2)CC1 (centres unmarked) [JBG02-055, (4-((2-((Bis(4-fluorophenyl)methyl)sulfinyl)ethyl)amino)piperidin-1-yl)(phenyl)methanone] | 7.73 ± 0.732 µM | 97.72 | 0.0791 ± 0.0206 µM | – | –
O=C(C1CC1)N1CCC(NCCSC(c2ccc(F)cc2)c2ccc(F)cc2)CC1 [JBG02-083, (4-((2-((bis(4-fluorophenyl)methyl)thio)ethyl)amino)piperidin-1-yl)(cyclopropyl)methanone] | 1.01 ± 0.094 µM | 5.67 | 0.178 ± 0.035 µM | 0.26 | –
Cl.Cl.Fc1ccc(C(SCCNC2CCN(Cc3ccc(C(F)(F)F)cc3)CC2)c2ccc(F)cc2)cc1 [JBG01-083, N-(2-((Bis(4-fluorophenyl)methyl)thio)ethyl)-1-(4-(trifluoromethyl)benzyl)piperidin-4-amine] | 1.62 ± 0.175 µM | 8.53 | 0.19 ± 0.0479 µM | – | –
Cl.O=C(c1ccccc1)N1CCC(NCCSC(c2ccc(F)cc2)c2ccc(F)cc2)CC1 [JBG02-009, (4-((2-((Bis(4-fluorophenyl)methyl)thio)ethyl)amino)piperidin-1-yl)(phenyl)methanone] | – | – | – | – | Phase I in Liver Microsomes, Negative Control ([1]; 0 min): 100%; Phase I in Liver Microsomes, Rat ([1]; 0 min): 100%; Phase I in Liver Microsomes, Rat ([1]; 30 min): 20%; Phase I in Liver Microsomes, Negative Control ([1]; 60 min): 100%; Phase I in Liver Microsomes, Rat ([1]; 60 min): 7%; stability to Phase I metabolism (in words) ([1]; rat liver microsomes fortified with NADPH): susceptibility; Kd (σ1R): 0.00204 ± 0.000298 µM
CC(C)(C)C(=O)N1CCC(NCCSC(c2ccc(F)cc2)c2ccc(F)cc2)CC1.Cl [JBG02-064, 1-(4-((2-((Bis(4-fluorophenyl)methyl)thio)ethyl)amino)piperidin-1-yl)-2,2-dimethylpropan-1-one] | 1 ± 0.228 µM | 2.84 | 0.352 ± 0.137 µM | – | –
Cl.Cl.Fc1ccc(C(SCCN2CCC(NCc3ccc(C(F)(F)F)cc3)CC2)c2ccc(F)cc2)cc1 [JBG01-087, 1-(2-((Bis(4-fluorophenyl)methyl)thio)ethyl)-N-(4-(trifluoromethyl)benzyl)piperidin-4-amine] | 1.04 ± 0.19 µM | 8.13 | 0.128 ± 0.0319 µM | – | –
